Measurements: patent US20060134738A1, “Gene expression inducing fusion protein and method for controlling gene expression Induction” (priority 2003, published 2006)

Assays:
Assay type in all cases: cell-based
HMGCoA-reductase = test: LucF/LucR ratio in HeLa cells stably transfected with R17-4G-CVLS, screening of HMGCoA-reductase inhibitors (FIG. 3); conditions: for HMGCoA-reductase inhibiting activity (LucF/LucR ratio relative to a DMSO control): HeLa stably R17-4G-CVLS, reporters pCRL138 and pCRL138-R17, FIG. 3; for effect of mevalonate on the inhibitory activity (LucF/LucR ratio): in the presence of mevalonate, FIG. 3
From the text: HMGCoA-reductase, which synthesizes melavonate, is involved in isoprenylation, a post-translational modification of proteins such as 4G-CVLS.
In FIG. 3, the cells used during these tests are HeLa cells stably transfected with the plasmid encoding the R17-4G-CVLS fusion protein, and transiently transfected with the bicistronic reporter plasmids pCRL138 and pCRL138-R17.
The results are given in the form of the ratio of LucF/LucR activity in the presence of various pharmacological agents in the culture medium, relative to a DMSO control.
The model used also made it possible to screen potential HMGCoA-reductase inhibiting agents.

[1] = tested on: p27Kip1 protein expression in CHO (Chinese hamster ovary) cells; test: p27 expression by Western blotting in cotransfected CHO cells (FIG. 7); conditions: 8 hours
From the text: The reporter plasmid constructed in the context of this example makes it possible to transcribe, in mammalian cells in culture ex vivo, a bicistronic RNA encoding a truncated H2-Kk protein (mouse MHC class I molecule) as a marker for selection of the transfected cells, and encoding the p27Kip1 protein which is a cell cycle-inhibiting protein. The bicistronic RNA also contains, in the intercistron space, a binding site for the R17 bacteriophage capsid protein. This bicistronic RNA is very diagrammatically represented in FIG. 7.
The effector plasmid used is the one for expressing the R17-4G-CVLS fusion protein.
CHO (Chinese hamster ovary) cells are transiently transfected with cationic liposomes using 10 pmol of reporter plasmids and 5 pmol of activator plasmids per 1 million cells. Twelve hours after transfection, the cells are treated for 8 hours with the farnesyltransferase inhibitor (Cys-Val-3(2-naphthyl)Ala-Met; Sigma C4433) at a final concentration of 1 μM in the culture medium. […]
The expression of the p27 protein (ap27 line) is examined by Western blotting with a monoclonal antibody (Ref. 610241, BD Bioscience Pharmingen). The expression of the R17-4G-CVLS fusion protein (aHA line) is detected by Western blotting using a monoclonal antibody against the HA peptide (Eurogentec) located at the NH2-terminal end of the R17-4G-CVLS protein. […]

[2] = tested on: translation of the second cistron (LucF/LucR ratio), SKHep-1 human hepatoma cells; test: LucF/LucR translation induction in transiently transfected SKHep-1 cells (FIG. 1); conditions: inhibitor 15 μM, 1 to 8 hours
From the text: 1. “Reporter” plasmids that make it possible to transcribe, in the cells, a bicistronic RNA encoding the LucR (Renilla luciferase) reporter protein in the first cistron and the LucF (firefly luciferase) reporter protein in the second cistron. The plasmids pCRL30-R17 or pCRL138-R17 also contain, in the intercistron space of the mRNA, a binding site for the capsid protein of the R17 bacteriophage (plasmid).
2. Effector plasmids which will be able to express, in the cells: • a fusion protein consisting of the R17 phage capsid protein fused with the C-terminal region of the eIF4G translation initiation factor, for the plasmid pCI R17-4G, • a fusion protein consisting of the R17 phage capsid protein fused with the C-terminal region of the eIF4G translation initiation factor and a farnesylation protein domain (of protein sequence CVLS), for the plasmid pCI R17-4G-CVLS.
The procedure is carried out in the following way. SKHep-1 human hepatoma cells are transiently transfected with cationic liposomes using 10 pmol of reporter plasmids and 5 pmol of activator plasmids per 1 million cells. […]
After lysis of the cells, the LucR and LucF activities are assayed using the “Dual-Luciferase (TM) reporter system” kit (Promega E1980) on a Berthold LB96B luminescence device. […]

[3] = tested on: Farnesyl Pyrophosphate Synthase, also called FPP-synthase; test: LucF/LucR ratio in HeLa cells stably transfected with R17-4G-CVLS, FPP-synthase inhibitors (FIG. 4); conditions: HeLa stably R17-4G-CVLS
From the text: This enzyme is required for the biosynthesis of farnesyl pyrophosphates.
In these tests represented in FIG. 4, the same cellular model as in b), stably transfected with R17-4G-CVLS, is used.

[4] = tested on: proteins containing CVLS, CVLL or SVLS boxes in HeLa cells; test: Subcellular localization of fusion proteins by fluorescence microscopy (FIGS. 6A and B); conditions: treatment 8 hours, immunofluorescence with anti-HA antibody
From the text: Moreover, the subcellular localization of proteins containing CVLS, CVLL or SVLS boxes was verified.
To do this, these boxes were fused with the YFP protein (yellow fluorescent protein), and all the fusion proteins were cloned with an HA sequence in the N-terminal position. The constructs were transiently transfected into HeLa cells, and the localization of the fusion proteins was followed by fluorescence microscopy after immunofluorescence with an anti-HA antibody (FIGS. 6A and B, in color).

[5] = tested on: farnesylation of R17-4G-CVLS; test: LucF/LucR induction in HeLa clone with integrated R17-4G-CVLS, prenyltransferase inhibitors (FIG. 2A, 2B); conditions: for induction (quotient of LucF and LucR relative to the DMSO control): reporters pCRL138 and pCRL138-R17, FIG. 2A
Method: The nucleic acid encoding the R17-4G-CVLS protein is integrated into the genome of HeLa cells. The reporter plasmids pCRL138 and pCRL138-R17 are transiently transfected into this clone. The products that act on farnesylation of R17-4G-CVLS are then sought.
DMSO is the solvent in which the products (FTI 277 and GGTI 298) that are added to the culture medium are dissolved, and therefore represents an induction control.
The white rectangles represent the RNA which carries the R17 protein recognition sequence. The black rectangles represent the activities obtained under the same conditions with an RNA sequence that is similar but no longer carries the R17 recognition; it is therefore the negative control for the first construct.
The induction is represented by the quotient of the LucF and LucR values measured directly in the presence of an agent (FTI 277 or GGTI 298), relative to the DMSO control.

[6] = tested on: R17-4G-CAAX constructs (CVLS, CVLL, SVLS) in HeLa cells; test: Translation activation in HeLa clones with integrated reporter, transiently transfected with R17-4G-CAAX constructs (FIG. 5); conditions: for activation of translation relative to the DMSO controls, R17-4G-SVLS: construct neither farnesylated nor geranylated; for activation of translation relative to the DMSO controls, R17-4G-CVLS: construct with farnesylations box; for activation of translation relative to the DMSO controls, R17-4G-CVLL: construct with geranylations box
Method: The pCRL138 or pCRL138-R17 reporter sequences are integrated into the genome of HeLa cells, and various R17-4G-CAAX constructs—where CAAX can be farnesylated, “CVLS”, or geranylgeranylated, “CVLL”, or no longer undergo any post-translational modifications of this type, “SVLS”,—are transiently transfected into these two clones.
After transfection, the cells are treated with FTI 277 (farnesyltransferase inhibitor) or GGTI 298 (geranyltransferase inhibitor).

Compound	HMGCoA-reductase inhibiting activity (LucF/LucR ratio relative to a DMSO control) (HMGCoA-reductase)	effect of mevalonate on the inhibitory activity (LucF/LucR ratio) (HMGCoA-reductase)	induction (quotient of LucF and LucR relative to the DMSO control) ([5]; HeLa, integrated R17-4G-CVLS)	activation of translation relative to the DMSO controls, R17-4G-SVLS [6]	activation of translation relative to the DMSO controls, R17-4G-CVLS [6]	activation of translation relative to the DMSO controls, R17-4G-CVLL [6]	also measured
c1ccc(Cc2ccc(OCCN3CCCC3)cc2)cc1 [PBPE]	found to be an inhibitor of HMGCOA-reductase	compensated for by the presence of mevalonate					
Cys-Val-3(2-naphthyl)Ala-Met [farnesyltransferase inhibitor]							amount of p27 (Western blotting) ([1]; CHO cotransfected with pR17-4G-CVLS and pK-R17-p27, inhibitor 1 μM): An increase in the amount of p27; amount of fusion protein produced (Western blotting, anti-HA) ([1]; CHO cotransfected, with or without inhibitor 1 μM): identical with or without treatment with the inhibitor; level of translation induced by the expression of the R17-4G fusion protein under inhibitor treatment (LucF/LucR ratio) ([2]; SKHep-1, effector pCI R17-4G): not modulated; increase in translation induced by the R17-4G-CAAX inducer fusion protein under inhibitor treatment (LucF/LucR ratio) ([2]; SKHep-1, effector pCI R17-4G-CVLS): dependent on the time of treatment
CC/C(=C(\c1ccccc1)c1ccc(OCCN(C)C)cc1)c1ccccc1 [tamoxifen]	inhibits this enzyme even at low concentrations	reversed or compensated for by mevalonate					farnesylation / FPP-synthase inhibition (LucF/LucR ratio) [3]: is also an FPP-synthase inhibitor
COC(=O)[C@H](CCSC)NC(=O)c1ccc(NC[C@@H](N)CS)cc1-c1ccccc1 [FTI 277]			has an inducer effect	neither of the two molecules is capable of activation	capable of activating translation	only GGTI 298 is capable of activating translation	relocalization of fusion proteins to the cytoplasm [4]: relocalizes only the YFP-CVLS and R17-4G-CVLS proteins to the cytoplasm; treatment time at which the maximum activation effect is obtained ([5]; HeLa, integrated R17-4G-CVLS, kinetics FIG. 2A): 8 h; reversibility of the activation effect (LucF/LucR activation ratio after removal of the product) ([5]; cells treated for 8 h with 1 μM, then product removed, FIG. 2B): reversible
COC(=O)[C@H](CC(C)C)NC(=O)c1ccc(NC[C@@H](N)CS)cc1-c1cccc2ccccc12 [GGTI 298]			has no activation effect	neither of the two molecules is capable of activation	only FTI 277 is capable of activating translation	capable of activating translation	
